Test results from patent US20090239840A1, “AMINO SUBSTITUTED DIARYL[a,d]CYCLOHEPTENE ANALOGS AS [sequence] AGONISTS AND METHODS OF TREATMENT OF NEUROPSYCHIATRIC DISORDERS” (ACADIA PHARMACEUTICALS, INC., priority 2003, published 2009).

Tests used:
[1] = biological target: T1, CYP 1A2 (Homo sapiens, UniProt P05177); assay: CYP inhibition, 1A2; type: in vitro ADME
T1 sequence (P05177 1-516): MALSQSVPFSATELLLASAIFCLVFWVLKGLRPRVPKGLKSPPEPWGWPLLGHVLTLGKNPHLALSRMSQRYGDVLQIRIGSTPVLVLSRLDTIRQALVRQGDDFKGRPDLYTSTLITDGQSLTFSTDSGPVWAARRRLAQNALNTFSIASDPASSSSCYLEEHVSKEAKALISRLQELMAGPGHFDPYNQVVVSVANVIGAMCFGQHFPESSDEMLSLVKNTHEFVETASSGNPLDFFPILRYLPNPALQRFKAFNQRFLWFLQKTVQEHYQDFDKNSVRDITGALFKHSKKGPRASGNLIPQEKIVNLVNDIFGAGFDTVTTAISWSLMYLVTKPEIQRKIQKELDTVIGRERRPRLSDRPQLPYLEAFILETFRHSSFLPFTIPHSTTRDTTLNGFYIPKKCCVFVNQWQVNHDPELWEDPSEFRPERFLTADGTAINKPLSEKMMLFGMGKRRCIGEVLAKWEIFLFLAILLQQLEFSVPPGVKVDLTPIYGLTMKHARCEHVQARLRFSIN

[2] = biological target: T2, muscarinic M2 receptor (Homo sapiens, UniProt P08172); assay: R-SAT functional screen, M2; type: cell-based; settings: R-SAT
T2 construct: expressed in transfected cells
T2 sequence (P08172 1-466): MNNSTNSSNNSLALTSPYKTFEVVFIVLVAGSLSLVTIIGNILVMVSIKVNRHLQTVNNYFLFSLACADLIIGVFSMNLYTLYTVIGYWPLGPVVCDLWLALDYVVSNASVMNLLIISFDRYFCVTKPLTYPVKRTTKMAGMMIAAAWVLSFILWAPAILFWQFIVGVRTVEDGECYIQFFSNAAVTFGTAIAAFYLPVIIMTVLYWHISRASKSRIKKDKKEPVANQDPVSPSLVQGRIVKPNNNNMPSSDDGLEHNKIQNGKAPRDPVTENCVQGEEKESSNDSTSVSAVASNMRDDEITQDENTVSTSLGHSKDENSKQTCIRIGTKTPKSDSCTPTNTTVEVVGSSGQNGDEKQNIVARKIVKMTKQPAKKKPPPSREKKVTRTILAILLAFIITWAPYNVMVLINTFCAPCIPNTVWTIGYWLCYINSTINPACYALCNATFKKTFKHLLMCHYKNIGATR
Procedure, shortened: (§1)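 Receptor Selection and Amplification Technology (R-SAT) functional cell assay at M1, M2, M3 receptors. Values reported as efficacy (eff) and potency as pEC50.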

[3] = Ames mutagenesis assay; type: cell-based; settings: to 10 μM (cytotoxicity precluded evaluation of all concentrations)
[4] = biological target: T3, muscarinic M3 receptor (Homo sapiens, UniProt P20309); assay: R-SAT functional screen, M3; type: cell-based
T3 construct: expressed in transfected cells
From the text: The term “modulate” refers to the ability of a compound disclosed herein to alter the function of a muscarinic receptor. A modulator may activate the activity of a muscarinic receptor, may activate or inhibit the activity of a muscarinic receptor depending on the concentration of the compound exposed to the muscarinic receptor, or may inhibit the activity of a muscarinic receptor. The term “modulate” also refers to altering the function of a muscarinic receptor by increasing or decreasing the probability that a complex forms between a muscarinic receptor and a natural binding partner. A modulator may increase the probability that such a complex forms between the muscarinic receptor and the natural binding partner, may increase or decrease the probability that a complex forms between the muscarinic receptor and the natural binding partner depending on the concentration of the compound exposed to the muscarinic receptor, and or may decrease the probability that a complex forms between the muscarinic receptor and the natural binding partner. In some embodiments, modulation of the muscarinic receptor may be assessed using Receptor Selection and Amplification Technology (R-SAT) as described in U.S. Pat. No. 5,707,798, the disclosure of which is incorporated herein by reference in its entirety.
Several compounds disclosed herein were evaluated for activity at muscarinic receptors using Receptor Selection and Amplification Technology (R-SAT) as described in U.S. Pat. No. 5,707,798, the disclosure of which is incorporated herein by reference in its entirety. The efficacy (eff) and potency (expressed as pEC50) of these compounds are presented in Table 1 at M1, M2, and M3 receptors.

[5] = biological target: D2 receptor (Homo sapiens, UniProt P14416); assay: Receptor profile, D2 agonist activity
From the text: (§3) Intrinsic activity was normalized to carbachol (M1) or pergolide (D2). For those ligands devoid of agonist activity, the values shown are pKi determined using [3H]raclopride.

[6] = biological target: 5-HT2A receptor (Homo sapiens, UniProt P28223); assay: Receptor profile, 5-HT2A inverse agonism; type: cell-based; settings: negative log of the inhibitory IC50 (inverse agonism); read-out: 5-HT2A pIEC50 (converted)
[7] = biological target: hERG (Homo sapiens, UniProt Q12809); assay: hERG assay
[8] = biological target: CYP 2C9 (Homo sapiens, UniProt P11712); assay: CYP inhibition, 2C9; type: in vitro ADME
[9] = Human microsomal clearance; type: in vitro ADME; settings: human microsomes
[10] = tested on: hyperactivity induced by MK-801; assay: MK-801 induced hyperactivity mouse model; type: in vivo; settings: mice, sc, salts of the compounds
Procedure: (§2) Five of the compounds listed in Table 2 were tested in an in vivo assay predictive of antipsychotic activity. Salts of these compounds where administered to mice having hyperactivity induced by amphetamine or MK-801 administration. The compounds were administered both subcutaneously (sc) and orally (po).

[11] = tested on: hyperactivity induced by amphetamine; assay: Amphetamine induced hyperactivity mouse model; type: in vivo; settings: mice, salts of the compounds
Procedure: as §2

[12] = biological target: T4, muscarinic M1 receptor (Homo sapiens, UniProt P11229); assay: R-SAT functional screen, M1; type: cell-based; settings: R-SAT
T4 construct: expressed in transfected cells
T4 sequence (P11229 1-460): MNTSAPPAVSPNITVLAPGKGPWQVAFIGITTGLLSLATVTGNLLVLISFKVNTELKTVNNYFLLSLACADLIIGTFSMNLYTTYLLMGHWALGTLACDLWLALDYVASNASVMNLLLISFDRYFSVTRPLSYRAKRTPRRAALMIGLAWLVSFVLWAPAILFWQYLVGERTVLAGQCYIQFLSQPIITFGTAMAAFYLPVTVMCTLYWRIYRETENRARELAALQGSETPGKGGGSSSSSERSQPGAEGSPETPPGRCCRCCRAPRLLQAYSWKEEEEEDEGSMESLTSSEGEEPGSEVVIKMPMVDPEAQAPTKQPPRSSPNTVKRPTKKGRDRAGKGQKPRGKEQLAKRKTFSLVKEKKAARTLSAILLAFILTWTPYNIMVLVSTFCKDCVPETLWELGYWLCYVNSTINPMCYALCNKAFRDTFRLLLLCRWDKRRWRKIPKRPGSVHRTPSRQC
Procedure, shortened: as §1

[13] = biological target: CYP 3A4 (Homo sapiens, UniProt P08684); assay: biochemical
Procedure: The compounds listed in Table 4 were profiled in a panel of in vitro assays for assessment of cardiovascular (hERG), drug-drug interaction (CYP inhibition), and mutagenic (Ames) liability. Microsomal stability was also determined by measuring both rat and human microsomal clearance.

[14] = biological target: T5, M1 receptor (Homo sapiens, UniProt P11229); assay: Receptor profile, M1 agonist activity
T5 sequence (P11229 1-460): T4 sequence (P11229 1-460)
From the text: as §3

[15] = biological target: CYP 2D6 (Homo sapiens, UniProt P10635); assay: CYP inhibition, 2D6; type: in vitro ADME
[16] = biological target: CYP 2C19 (Homo sapiens, UniProt P33261); assay: CYP inhibition, 2C19; type: in vitro ADME
[17] = Rat microsomal clearance; type: in vitro ADME; settings: rat microsomes
[18] = tested on: novel object recognition; assay: Novel object recognition (NOR) assay; type: in vivo; settings: mice
Procedure: Salts of the compounds were administered to mice at one hour post-training (a time-point at which animals normally behaviorally discriminate between novel and familiar objects) and two hours post-training (a time-point at which these animals normally no longer discriminate between objects). Doses were selected to correspond to the approximate ID75 value in the MK-801 hyperactivity assay.

[19] = dose approx. ID75 in MK-801 hyperactivity assay

Sequence of D2 receptor (P14416 whole entry): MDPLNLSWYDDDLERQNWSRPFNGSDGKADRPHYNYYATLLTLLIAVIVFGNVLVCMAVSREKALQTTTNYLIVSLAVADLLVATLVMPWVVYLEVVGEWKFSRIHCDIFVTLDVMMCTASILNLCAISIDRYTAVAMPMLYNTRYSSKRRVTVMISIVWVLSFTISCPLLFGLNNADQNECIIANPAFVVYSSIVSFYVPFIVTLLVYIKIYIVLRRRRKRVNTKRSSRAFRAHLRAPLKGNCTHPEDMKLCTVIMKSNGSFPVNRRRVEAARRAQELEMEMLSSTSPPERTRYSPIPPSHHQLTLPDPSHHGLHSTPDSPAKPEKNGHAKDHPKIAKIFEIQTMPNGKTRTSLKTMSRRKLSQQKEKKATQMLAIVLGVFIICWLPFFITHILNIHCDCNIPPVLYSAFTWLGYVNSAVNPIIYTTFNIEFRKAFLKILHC
Sequence of CYP 2D6 (P10635 whole entry): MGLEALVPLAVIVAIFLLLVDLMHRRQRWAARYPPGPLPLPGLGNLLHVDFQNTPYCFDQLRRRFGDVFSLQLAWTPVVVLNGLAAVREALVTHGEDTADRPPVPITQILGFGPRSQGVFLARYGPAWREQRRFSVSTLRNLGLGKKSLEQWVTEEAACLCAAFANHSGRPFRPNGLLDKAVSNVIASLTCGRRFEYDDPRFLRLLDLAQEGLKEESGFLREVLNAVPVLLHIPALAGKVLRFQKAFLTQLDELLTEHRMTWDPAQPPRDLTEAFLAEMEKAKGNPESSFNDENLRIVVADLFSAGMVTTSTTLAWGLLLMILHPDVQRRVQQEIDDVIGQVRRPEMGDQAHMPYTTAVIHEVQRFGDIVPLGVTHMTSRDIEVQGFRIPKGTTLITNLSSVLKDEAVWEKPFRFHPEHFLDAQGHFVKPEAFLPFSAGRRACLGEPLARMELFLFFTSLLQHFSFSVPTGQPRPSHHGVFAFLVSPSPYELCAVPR
Sequence of 5-HT2A receptor (P28223 whole entry): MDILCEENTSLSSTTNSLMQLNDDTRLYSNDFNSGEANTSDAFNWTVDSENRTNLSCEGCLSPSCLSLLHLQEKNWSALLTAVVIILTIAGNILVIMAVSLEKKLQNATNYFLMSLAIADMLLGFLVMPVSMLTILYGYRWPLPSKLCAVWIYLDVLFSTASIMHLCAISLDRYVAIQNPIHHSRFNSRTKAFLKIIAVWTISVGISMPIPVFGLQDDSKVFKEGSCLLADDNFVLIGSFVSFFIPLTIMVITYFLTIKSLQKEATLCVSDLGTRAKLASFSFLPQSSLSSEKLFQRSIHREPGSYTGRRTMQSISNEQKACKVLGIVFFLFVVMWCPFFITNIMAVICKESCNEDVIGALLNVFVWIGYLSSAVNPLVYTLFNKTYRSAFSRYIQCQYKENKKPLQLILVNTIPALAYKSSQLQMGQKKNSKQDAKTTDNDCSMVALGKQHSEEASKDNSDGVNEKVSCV
Sequence of CYP 2C9 (P11712 whole entry): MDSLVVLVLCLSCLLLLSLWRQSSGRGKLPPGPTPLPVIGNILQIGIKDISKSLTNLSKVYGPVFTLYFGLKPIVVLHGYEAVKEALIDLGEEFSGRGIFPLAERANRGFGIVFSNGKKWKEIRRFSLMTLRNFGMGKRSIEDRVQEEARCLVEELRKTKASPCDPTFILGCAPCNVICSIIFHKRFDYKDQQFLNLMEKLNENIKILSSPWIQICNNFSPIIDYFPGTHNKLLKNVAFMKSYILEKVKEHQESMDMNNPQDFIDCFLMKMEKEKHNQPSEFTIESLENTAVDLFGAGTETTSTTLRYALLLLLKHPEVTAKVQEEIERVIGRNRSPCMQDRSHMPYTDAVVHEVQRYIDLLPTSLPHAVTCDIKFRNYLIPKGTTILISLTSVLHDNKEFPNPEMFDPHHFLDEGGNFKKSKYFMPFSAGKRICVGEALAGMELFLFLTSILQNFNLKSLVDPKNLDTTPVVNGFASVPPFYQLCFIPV
T3 sequence (P20309 whole entry): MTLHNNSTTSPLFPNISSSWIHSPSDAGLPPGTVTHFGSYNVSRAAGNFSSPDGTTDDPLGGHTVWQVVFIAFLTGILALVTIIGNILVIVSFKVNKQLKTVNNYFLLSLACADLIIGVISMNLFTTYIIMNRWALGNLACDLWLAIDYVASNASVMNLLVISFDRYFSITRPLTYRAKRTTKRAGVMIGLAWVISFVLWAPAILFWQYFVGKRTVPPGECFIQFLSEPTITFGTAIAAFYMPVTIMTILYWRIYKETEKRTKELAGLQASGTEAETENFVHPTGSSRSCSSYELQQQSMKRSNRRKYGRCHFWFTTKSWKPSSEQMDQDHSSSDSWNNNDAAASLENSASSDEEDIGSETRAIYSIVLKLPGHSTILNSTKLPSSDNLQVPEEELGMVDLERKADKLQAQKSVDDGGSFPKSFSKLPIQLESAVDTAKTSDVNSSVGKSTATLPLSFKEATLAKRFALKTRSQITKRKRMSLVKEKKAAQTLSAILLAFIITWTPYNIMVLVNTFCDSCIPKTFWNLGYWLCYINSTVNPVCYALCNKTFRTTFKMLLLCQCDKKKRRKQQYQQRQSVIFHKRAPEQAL
Sequence of hERG (Q12809 whole entry): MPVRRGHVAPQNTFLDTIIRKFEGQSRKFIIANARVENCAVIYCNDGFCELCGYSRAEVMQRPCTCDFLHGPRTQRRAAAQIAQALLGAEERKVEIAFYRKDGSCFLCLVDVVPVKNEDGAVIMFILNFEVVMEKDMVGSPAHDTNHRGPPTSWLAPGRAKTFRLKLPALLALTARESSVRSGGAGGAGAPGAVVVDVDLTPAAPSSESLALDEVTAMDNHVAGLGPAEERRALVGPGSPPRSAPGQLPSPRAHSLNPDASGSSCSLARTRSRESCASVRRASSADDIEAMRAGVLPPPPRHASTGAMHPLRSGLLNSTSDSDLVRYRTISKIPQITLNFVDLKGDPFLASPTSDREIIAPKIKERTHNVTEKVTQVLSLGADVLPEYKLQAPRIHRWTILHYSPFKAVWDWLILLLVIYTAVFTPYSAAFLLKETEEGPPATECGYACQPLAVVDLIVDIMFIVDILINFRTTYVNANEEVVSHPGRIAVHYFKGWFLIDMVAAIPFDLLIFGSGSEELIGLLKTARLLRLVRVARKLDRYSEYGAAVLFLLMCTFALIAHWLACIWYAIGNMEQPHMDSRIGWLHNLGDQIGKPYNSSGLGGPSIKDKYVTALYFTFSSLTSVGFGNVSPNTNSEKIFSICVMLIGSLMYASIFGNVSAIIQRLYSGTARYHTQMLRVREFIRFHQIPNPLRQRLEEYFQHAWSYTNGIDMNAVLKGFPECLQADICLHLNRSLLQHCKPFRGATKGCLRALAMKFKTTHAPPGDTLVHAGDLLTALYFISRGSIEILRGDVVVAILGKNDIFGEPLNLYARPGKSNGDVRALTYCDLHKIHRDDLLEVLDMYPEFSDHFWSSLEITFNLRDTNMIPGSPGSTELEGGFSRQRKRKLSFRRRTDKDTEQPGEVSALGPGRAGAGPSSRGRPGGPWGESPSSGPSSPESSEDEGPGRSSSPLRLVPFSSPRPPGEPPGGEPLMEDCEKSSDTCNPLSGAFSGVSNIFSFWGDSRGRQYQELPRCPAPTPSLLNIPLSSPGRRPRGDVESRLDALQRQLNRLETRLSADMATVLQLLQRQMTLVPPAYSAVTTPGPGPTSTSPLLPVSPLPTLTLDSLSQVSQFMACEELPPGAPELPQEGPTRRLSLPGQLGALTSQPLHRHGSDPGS
Sequence of CYP 2C19 (P33261 whole entry): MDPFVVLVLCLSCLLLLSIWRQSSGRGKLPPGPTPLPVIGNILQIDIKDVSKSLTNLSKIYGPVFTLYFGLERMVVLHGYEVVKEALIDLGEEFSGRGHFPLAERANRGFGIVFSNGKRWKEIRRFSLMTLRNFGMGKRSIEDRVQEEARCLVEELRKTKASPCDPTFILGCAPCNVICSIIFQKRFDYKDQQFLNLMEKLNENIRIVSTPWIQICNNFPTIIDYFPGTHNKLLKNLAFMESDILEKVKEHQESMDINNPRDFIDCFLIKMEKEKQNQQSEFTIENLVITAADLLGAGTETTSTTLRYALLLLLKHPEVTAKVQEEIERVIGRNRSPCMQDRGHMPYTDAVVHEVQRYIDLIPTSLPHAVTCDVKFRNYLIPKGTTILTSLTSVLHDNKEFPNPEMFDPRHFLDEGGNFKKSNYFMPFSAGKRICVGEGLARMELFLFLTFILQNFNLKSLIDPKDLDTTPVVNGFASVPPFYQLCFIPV
Sequence of CYP 3A4 (P08684 whole entry): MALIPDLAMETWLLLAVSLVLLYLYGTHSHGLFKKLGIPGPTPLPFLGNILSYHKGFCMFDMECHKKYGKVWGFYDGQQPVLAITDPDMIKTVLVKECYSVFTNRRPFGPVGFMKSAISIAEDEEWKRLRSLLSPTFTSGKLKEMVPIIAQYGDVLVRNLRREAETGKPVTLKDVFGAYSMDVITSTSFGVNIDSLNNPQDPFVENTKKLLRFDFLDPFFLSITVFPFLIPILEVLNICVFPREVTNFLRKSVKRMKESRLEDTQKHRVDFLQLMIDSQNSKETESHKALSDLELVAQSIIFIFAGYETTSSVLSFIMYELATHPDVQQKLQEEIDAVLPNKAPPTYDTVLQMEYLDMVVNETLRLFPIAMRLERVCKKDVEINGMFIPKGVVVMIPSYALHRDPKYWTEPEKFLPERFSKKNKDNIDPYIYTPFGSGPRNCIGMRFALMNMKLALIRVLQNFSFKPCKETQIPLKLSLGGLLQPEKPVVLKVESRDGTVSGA

CN1c2ccc(Cl)cc2N=C(N2CCNCC2)c2ccccc21 [8-Chloro-5-methyl-11-(piperazin-1-yl)-5H-dibenzo[b,e][1,4]diazepine]
IC50 [1]: > 10 µM | Emax ([2]; read-out: M2 eff (efficacy)): 138% | EC50 ([2]; read-out: M2 pEC50 (converted)): 1.26 µM | Ames [3]: Neg. | M3 eff (efficacy) [4]: 14 | EC50 [5]: 0.0158 µM | Emax ([5]; read-out: D2 intrinsic activity %): 29% | IC50 [6]: > 10 µM | IC50 [7]: 1.3 µM | IC50 [8]: > 10 µM | microsomal CLint [9]: 23 µL/min/mg | MK-801 model (ID50 mg/kg sc) [10]: 1.5 mg/kg | Amphetamine model (ID50 mg/kg po) ([11]; po): >10 mg/kg | Amphetamine model (ID50 mg/kg sc) ([11]; sc): 6.0 mg/kg | Emax ([12]; read-out: M1 eff (efficacy)): 65% | EC50 ([12]; read-out: M1 pEC50 (converted)): 0.0794 µM | IC50 [13]: 0.4 µM | EC50 [14]: 0.0794 µM | Emax ([14]; read-out: M1 intrinsic activity %): 65% | IC50 [15]: > 10 µM | IC50 [16]: > 10 µM | microsomal CLint [17]: 1090 µL/min/mg | NOR Interpretation [18]: no effect | NOR - 60 minutes post training [18, 19]: retained | NOR - 120 minutes post training [18, 19]: not retained
